Legend:
Gaeumannomyces graminis = Gaeumannomyces graminis / liquid culture (Take-all of cereals); type: cell-based; details: growth inhibition photometrically 4-5 days after application, compared to untreated control
[1] = system: Monographella nivalis (Microdochium nivale); experiment: Monographella nivalis (Microdochium nivale) / liquid culture (foot rot cereals); type: cell-based; details: 96 h, growth inhibition photometrically 4-5 days after application, compared to untreated control
[2] = system: Botryotinia fuckeliana (Botrytis cinerea); experiment: Botryotinia fuckeliana (Botrytis cinerea) / liquid culture (Gray mould); type: cell-based; details: growth inhibition photometrically 3-4 days after application, compared to untreated control
[3] = system: Glomerella lagenarium (Colletotrichum lagenarium); experiment: Glomerella lagenarium (Colletotrichum lagenarium) / liquid culture (Anthracnose); type: cell-based; details: Colletotrichum orbiculare, growth inhibition photometrically 3-4 days after application, compared to untreated control
[4] = system: Magnaporthe grisea (Pyricularia oryzae); experiment: whole plant or invertebrate; type: in vivo; details: foliar, read-out: control of Magnaporthe grisea
Fusarium culmorum = experiment: microbe, parasite or virus in culture; type: cell-based; details: read-out: control of Fusarium culmorum
[5] = system: Magnaporthe grisea (Pyricularia oryzae); experiment: microbe, parasite or virus in culture; type: cell-based; details: read-out: control of Magnaporthe grisea

SMILES | inhibition of growth at 20 ppm (Gaeumannomyces graminis) [%] | inhibition of growth at 20 ppm [1] [%] | inhibition of growth at 20 ppm [2] [%] | inhibition of growth at 20 ppm [3] [%] | melting point [°C] | pest or weed control at 200 ppm [4] [%] | inhibition of growth at 20 ppm (Fusarium culmorum) [%] | inhibition of growth at 60 ppm [5] [%]
CC1(C)N=C(c2cnc3c(C#N)cccn23)c2cccc(F)c2C1(C)C [Compound E-38, 3-(5-fluoro-3,3,4,4-tetramethyl-1-isoquinolyl)imidazo[1,2-a]pyridine-8-carbonitrile] | ≥ 80 | ≥ 80 | ≥ 80 | ≥ 80 |  |  |  | 
CC1(C)Cc2ccccc2C(c2cnc3c(Br)cccn23)=N1 [Compound E-41, 1-(8-bromoimidazo[1,2-a]pyridin-3-yl)-3,3-dimethyl-4H-isoquinoline] | ≥ 80 |  |  |  | 132 to 133 |  |  | 
Cc1cccn2c(C3=NC(C)(C)C(F)(F)c4ccccc43)cnc12 [Compound E-45, 4,4-difluoro-3,3-dimethyl-1-(8-methylimidazo[1,2-a]pyridin-3-yl)isoquinoline] |  | ≥ 80 | ≥ 80 | ≥ 80 |  | ≥ 50 | ≥ 80 | 
Cc1ccn2c(C3=NC(C)(C)C(C)(C)c4c(F)cccc43)cnc2c1Cl [Compound E-47, 1-(8-chloro-7-methyl-imidazo[1,2-a]pyridin-3-yl)-5-fluoro-3,3,4,4-tetramethyl-isoquinoline] |  |  | ≥ 80 | ≥ 80 | 185 to 186 |  | ≥ 80 | 
Cc1cccn2c(C3=NCC4(CCC4)c4ccccc43)cnc12 [Compound E-53, 1-(8-methylimidazo[1,2-a]pyridin-3-yl)spiro[3H-isoquinoline-4,1′-cyclobutane]] |  | ≥ 80 | ≥ 80 |  | 127 to 129 |  |  | ≥ 80
CC1(C)N=C(c2cnc3c(Cl)c(Cl)ccn23)c2ccccc2C1(F)F [Compound E-56, 1-(7,8-dichloroimidazo[1,2-a]pyridin-3-yl)-4,4-difluoro-3,3-dimethyl-isoquinoline] |  |  | ≥ 80 |  | > 210 |  |  | ≥ 80
CC1(C)N=C(c2cnn3ccccc23)c2cccc(F)c2C1(C)C [Compound E-58, 5-fluoro-3,3,4,4-tetramethyl-1-pyrazolo[1,5-a]pyridin-3-yl-isoquinoline] | ≥ 80 |  | ≥ 80 | ≥ 80 | 124 to 126 |  |  | 
Cc1cccc2c(C3=NC(C)(C)C(C)(C)c4c(F)cccc43)cnn12 [Compound E-59, 5-fluoro-3,3,4,4-tetramethyl-1-(7-methylpyrazolo[1,5-a]pyridin-3-yl)isoquinoline] |  | ≥ 80 | ≥ 80 | ≥ 80 | 134 to 136 | ≥ 50 | ≥ 80 | 
Cc1ccc2c(C3=NC(C)(C)C(=O)c4cc(F)ccc43)cnn2c1C [Compound E-74, 1-(6,7-dimethylpyrazolo[1,5-a]pyridin-3-yl)-6-fluoro-3,3-dimethyl-isoquinolin-4-one] |  |  | ≥ 80 | ≥ 80 | 168 to 170 |  | ≥ 80 | ≥ 80
Cc1c(Br)ccc2c(C3=NC(C)(C)C(=O)c4ccccc43)cnn12 [Compound E-78, 1-(6-bromo-7-methyl-pyrazolo[1,5-a]pyridin-3-yl)-3,3-dimethyl-isoquinolin-4-one] |  | ≥ 80 | ≥ 80 | ≥ 80 | 166 to 168 |  | ≥ 80 | ≥ 80
CC1(C)N=C(c2cnn3cc(C#N)ccc23)c2ccccc2C1(F)F [Compound E-85, 3-(4,4-difluoro-3,3-dimethyl-1-isoquinolyl)pyrazolo[1,5-a]pyridine-6-carbonitrile] |  |  | ≥ 80 |  | 191 to 194 |  |  | ≥ 80
C#Cc1ccc2c(C3=NC(C)(C)C(F)(F)c4ccccc43)cnn2c1 [Compound E-90, 1-(6-ethynylpyrazolo[1,5-a]pyridin-3-yl)-4,4-difluoro-3,3-dimethyl-isoquinoline] | ≥ 80 | ≥ 80 |  | ≥ 80 | 145 to 147 |  |  | ≥ 80
Cc1cccn2ncc(C3=NC4(CC4)C4(CC4)c4ccccc43)c12 [Compound E-95] |  |  | ≥ 80 | ≥ 80 |  | ≥ 50 |  | ≥ 80

From US10906897B2, “Microbiocidal heterobicyclic derivatives” (priority 2015, dated 2021)
